Data: US20130310428A1, “THERMO-STABLE, ARSENIC-FREE SYNERGISTIC BIOCIDE CONCENTRATE COMPOSITION FOR POLYMER MATRICES AND PROCESS FOR PREPARING SAME” (ISP INVESTMENTS INC., priority 2010, published 2013)

Key:
Type in all cases: cell-based
[1] = test system: mixture of Aspergillus niger (ATCC 9642), Aureobasidium pullulans (ATCC 15233), Chaetomium globosum (ATCC 6205), Penicillium funiculosum (ATCC 11797) and …; test: Fungal resistance ASTM G21 in swimming pool liner formulation; set-up: key: 0 is no growth; 1 is traces of growth (less than 10%); 2 is light growth (10-30%); 3 is medium growth (30-60%); 4 is maximum growth (more than 60%); conditions: growth rating after 4 weeks
Experimental: (§1) Plastic samples containing the biocide concentrate composition containing antioxidant can be prepared by mixing with commercially available flexible PVC and processing at 175° C. in a brabender. The samples are pressed to form coupons for testing purposes. A sample containing no biocide is also prepared to serve as a negative control against the samples of the present invention.
(§2) Fungal resistance tests are conducted according to ASTM G-21. Briefly, a fungal inoculum containing a mixture of Aspergillus niger (ATCC 9642), Aureobasidium pullulans (ATCC 15233), Chaetomium globosum (ATCC 6205), Penicillium funiculosum (ATCC 11797) and Trichoderma virens (ATCC 9645) is prepared to obtain a final spore concentration of about 10^5 spores/ml. The samples (in triplicate) are placed on Petri-dishes containing nutrient salts agar and incubated with the spore suspension. The samples are then incubated at 28° C. for 4 weeks and rated weekly. The fungal growth of the samples is rated on a scale of 0 to 4 where: 0 is no growth, 1 is traces of growth (less than 10%); 2 is light growth (10-30%); 3 is medium growth (30-60%) and 4 is maximum growth (more than 60%). The ratings shown in Tables 1 to 3 correspond to those at the end of the test i.e., on 4th week for three different compositions of combination of biocidal agents.
A swimming pool liner formulation is selected. The individual and synergistic biocidal compositions respectively IPBC, Folpet, OBPA and Folpet+IPBC are added and processed in the brabender as described in Example 1. The efficacy data for each sample is tested according to ASTM G21. Growth ratings after 4 weeks are described in the following Table 4.

[2] = test system: mixture of Aspergillus niger (ATCC 9642), Aureobasidium pullulans (ATCC 15233), Chaetomium globosum (ATCC 6205), Penicillium funiculosum (ATCC 11797) and …; test: Fungal resistance test ASTM G-21, flexible PVC coupons; set-up: key: 0 is no growth; 1 is traces of growth (less than 10%); 2 is light growth (10-30%); 3 is medium growth (30-60%); 4 is maximum growth (more than 60%); conditions: rating at 4th week
Experimental: as §1, §2

[3] = test system: mixture of A. niger (ATCC 9642) and P. funiculosum (ATCC 11797); test: Zone of Inhibition, flexible PVC coupons on seeded Malt agar; set-up: key: A zone of inhibition around the sample is rated as “+”; The absence of zone of inhibition is rated as “−”; conditions: 4 weeks
Experimental: as §1
Briefly a fungal inoculum containing a mixture of A. niger (ATCC 9642) and P. funiculosum (ATCC 11797) is prepared. The spore suspension is added to molten Malt agar to a final concentration of 10^4-10^5 spores/ml, poured onto the petri-dishes and allowed to dry. The samples are placed on the surface of the seeded agar and incubated at 28° C. for 4 weeks. A zone of inhibition around the sample is rated as “+”. The absence of zone of inhibition is rated as “−”. The results are shown in Tables 1 to 3 for three different combinations of biocidal agents.

[4] = test system: Streptoverticillium reticulum (ATCC 25607); test: Pink Stain test ASTM E1428, flexible PVC coupons; set-up: key: 0 is no stain; 1 is a trace of stain (less than 10%); 2 is light stain (10-30%); 3 is medium stain (30-50%); 4 is maximum stain (more than 50%); conditions: 14 days
Experimental: as §1
Pink Stain tests are conducted according to ASTM E1428. Briefly, an inoculum containing the microorganism Streptoverticillium reticulum (ATCC 25607) is prepared. The inoculum is streaked onto the surface of Yeast Malt Extract Agar. The samples (in triplicate) are placed on the inoculated agar and incubated at 28° C. for 14 days. The degree of staining is rated on a scale of 0-4 where: 0 is no stain; 1 is a trace of stain (less than 10%); 2 is light stain (10-30%); 3 is medium stain (30-50%) and 4 is maximum stain (more than 50%). The ratings of the pink stain test are disclosed in Tables 1 to 3 for three different synergistic biocide compositions.

[5] = test system: mixture of Aspergillus niger (ATCC 9642), Aureobasidium pullulans (ATCC 15233), Chaetomium globosum (ATCC 6205), Penicillium funiculosum (ATCC 11797) and …; test: Fungal resistance ASTM G21 in wall covering formulation; set-up: key: 0 is no growth; 1 is traces of growth (less than 10%); 2 is light growth (10-30%); 3 is medium growth (30-60%); 4 is maximum growth (more than 60%); conditions: growth rating after 4 weeks
Experimental: as §1, §2
A wall covering formulation is employed for evaluating the efficacy of the present biocide concentrate composition. The individual and synergistic biocidal compositions respectively IPBC, Folpet, OBPA, Folpet+IPBC, and Folpet+TBZ are added and processed in the brabender as disclosed in Example 1. The efficacy data for each sample was tested according to ASTM G21. Growth ratings after 4 weeks are described in the following Table 5.

Row | SMILES | Fungal Resistance Test ([1]; Quantity 2000 ppm) | Fungal Resistance Test ([2]; Quantity 3000 ppm) | Zone inhibition ([3]; Quantity 3000 ppm) | Pink Stain ([4]; Quantity 3000 ppm) | Fungal Resistance Test ([5]; Quantity 2000 ppm) | Fungal Resistance Test ([1]; Quantity 500 ppm) | Fungal Resistance Test ([2]; Quantity 500 ppm) | Zone inhibition ([3]; Quantity 500 ppm) | Pink Stain ([4]; Quantity 500 ppm) | Fungal Resistance Test ([5]; Quantity 1000 ppm) | Fungal Resistance Test ([1]; Quantity 400 ppm) | Fungal Resistance Test ([5]; Quantity 600 ppm)
1 | O=C1c2ccccc2C(=O)N1SC(Cl)(Cl)Cl [Folpet, trichloromethyl-thio-phthalimide] | 1 (1 is traces of growth (less than 10%)) | 1 (1 is traces of growth (less than 10%)) | − | 0 | 3 (3 is medium growth (30-60%)) |  |  |  |  |  |  | 
2 | CCCCNC(=O)OCC#CI [IPBC, 3-iodo-2-propynylbutyl-carbamate] |  |  |  |  |  | 1 (1 is traces of growth (less than 10%)) | 1 (1 is traces of growth (less than 10%)) | + | 2 (2 is light stain (10-30%)) | 2 (2 is light growth (10-30%)) |  | 
3 | c1ccc2[nH]c(-c3cscn3)nc2c1 [TBZ, Thiabendazole] |  |  |  |  |  |  | 1 (1 is traces of growth (less than 10%)) | − | 2 (2 is light stain (10-30%)) |  |  | 
4 | c1ccc2c(c1)Oc1ccccc1[As]2O[As]1c2ccccc2Oc2ccccc21 [OBPA, 10,10-oxybisphenoxarsine] |  |  |  |  |  |  | 0 | + | 0 |  | 0 | 0
5 | CCCCCCCCn1sccc1=O [OIT, 2-Octyl-4-isothiazolin-3-one] |  |  |  |  |  |  | 1 (1 is traces of growth (less than 10%)) | − | 1 (1 is a trace of stain (less than 10%)) |  |  | 
